From ChEMBL document CHEMBL3870354, “Viral Replication Inhibitors May Treat the Dengue Virus Infections” (ACS Med Chem Lett, 2017)
pEC50: −log10 of the molar value.

Test system: not listed separately
Experiment: Cytotoxicity against African green monkey Vero cells infected with eGPF-labeled DENV2 16681 assessed as reduction in cell viability measured after 3 days by ATPlite assay
Type: toxicity, cell-based
Settings: chlorocebus sabaeus, Vero cells infected with eGFP-labeled DENV2 16681

In order of rising CC50 at 72 h:
1. COc1cc(NC(C(=O)c2c[nH]c3c(C)c(F)ccc23)c2ccc(Cl)cc2OC)cc(S(C)(=O)=O)c1 (single isomer, unassigned; enantiomer 1)  4800 nM
2. COc1cc(NC(C(=O)c2c[nH]c3cc(F)ccc23)c2ccc(Cl)cc2OC)cc(S(C)(=O)=O)c1 (racemic)  5500 nM

Same assay, conditions: chlorocebus sabaeus, vero, 72 h

In order of rising CC50:
1. COc1cc(NC(C(=O)c2c[nH]c3c(C)cc(OC(F)(F)F)cc23)c2ccc(Cl)cc2OC)cc(S(C)(=O)=O)c1 (stereo in doubt; 11A)  2600 nM
2. COc1cc(NC(C(=O)c2c[nH]c3ccc(OC(F)(F)F)cc23)c2ccc(Cl)cc2OC)cc(S(C)(=O)=O)c1 (single isomer, unassigned; enantiomer 1)  2900 nM
3. COc1cc(NC(C(=O)c2c[nH]c3cc(F)c(C)cc23)c2ccc(Cl)cc2OC)cc(S(C)(=O)=O)c1 (single isomer, unassigned; enantiomer 2)  3200 nM
4. COc1cc(NC(C(=O)c2c[nH]c3cc(OC)c(C)cc23)c2ccc(Cl)cc2OC)cc(S(C)(=O)=O)c1 (single isomer, unassigned)  4200 nM
5. COc1cc(NC(C(=O)c2c[nH]c3cc(F)ccc23)c2ccc(Cl)cc2OC)cc(S(C)(=O)=O)c1 (single isomer, unassigned; enantiomer 1)  4300 nM
6. COc1cc(NC(C(=O)c2c[nH]c3ccc(OC(F)(F)F)cc23)c2ccc(Cl)cc2OC)cc(S(C)(=O)=O)c1 (single isomer, unassigned; enantiomer 2)  6200 nM
7. COc1cc(NC(C(=O)c2c[nH]c3cc(F)ccc23)c2ccc(Cl)cc2OC)cc(S(C)(=O)=O)c1 (single isomer, unassigned; enantiomer 2)  6500 nM
8. COc1cc(NC(C(=O)c2c[nH]c3cc(F)c(C)cc23)c2ccc(Cl)cc2OC)cc(S(C)(=O)=O)c1 (single isomer, unassigned; enantiomer 1)  6800 nM
9. COc1cc(NC(C(=O)c2c[nH]c3c(C)c(F)ccc23)c2ccc(Cl)cc2OC)cc(S(C)(=O)=O)c1 (single isomer, unassigned; enantiomer 2)  7400 nM
10. COc1cc(NC(C(=O)c2c[nH]c3c(C)cc(OC(F)(F)F)cc23)c2ccc(Cl)cc2OC)cc(S(C)(=O)=O)c1 (single isomer, unassigned; enantiomer 2)  9200 nM
11. COc1cc(NC(C(=O)c2c[nH]c3cc(OC)c(C)cc23)c2ccc(Cl)cc2OC)cc(S(C)(=O)=O)c1 (single isomer, unassigned; enantiomer 2)  12000 nM

Test system: dengue virus type 2
Experiment: Antiviral activity against eGPF-labeled DENV2 16681 infected in African green monkey Vero cells measured after 3 days by fluorescence microscopic analysis
Type: functional, cell-based
Settings: not given

In order of rising pEC50:
1. COc1cc(NC(C(=O)c2c[nH]c3cc(OC)c(C)cc23)c2ccc(Cl)cc2OC)cc(S(C)(=O)=O)c1 (single isomer, unassigned; enantiomer 2)  7.44
2. COc1cc(NC(C(=O)c2c[nH]c3c(C)c(F)ccc23)c2ccc(Cl)cc2OC)cc(S(C)(=O)=O)c1 (single isomer, unassigned; enantiomer 2)  7.59
3. COc1cc(NC(C(=O)c2c[nH]c3cc(F)c(C)cc23)c2ccc(Cl)cc2OC)cc(S(C)(=O)=O)c1 (single isomer, unassigned; enantiomer 1)  7.89
4. COc1cc(NC(C(=O)c2c[nH]c3cc(F)ccc23)c2ccc(Cl)cc2OC)cc(S(C)(=O)=O)c1 (single isomer, unassigned; enantiomer 2)  7.92
5. COc1cc(NC(C(=O)c2c[nH]c3c(C)cc(OC(F)(F)F)cc23)c2ccc(Cl)cc2OC)cc(S(C)(=O)=O)c1 (single isomer, unassigned; enantiomer 2)  8.39
6. COc1cc(NC(C(=O)c2c[nH]c3ccc(OC(F)(F)F)cc23)c2ccc(Cl)cc2OC)cc(S(C)(=O)=O)c1 (single isomer, unassigned; enantiomer 2)  8.42
7. COc1cc(NC(C(=O)c2c[nH]c3cc(F)ccc23)c2ccc(Cl)cc2OC)cc(S(C)(=O)=O)c1 (racemic)  9.28
8. COc1cc(NC(C(=O)c2c[nH]c3cc(OC)c(C)cc23)c2ccc(Cl)cc2OC)cc(S(C)(=O)=O)c1 (single isomer, unassigned)  9.57
9. COc1cc(NC(C(=O)c2c[nH]c3cc(F)ccc23)c2ccc(Cl)cc2OC)cc(S(C)(=O)=O)c1 (single isomer, unassigned; enantiomer 1)  9.59
10. COc1cc(NC(C(=O)c2c[nH]c3c(C)c(F)ccc23)c2ccc(Cl)cc2OC)cc(S(C)(=O)=O)c1 (single isomer, unassigned; enantiomer 1)  9.59
11. COc1cc(NC(C(=O)c2c[nH]c3cc(F)c(C)cc23)c2ccc(Cl)cc2OC)cc(S(C)(=O)=O)c1 (single isomer, unassigned; enantiomer 2)  9.70
12. COc1cc(NC(C(=O)c2c[nH]c3c(C)cc(OC(F)(F)F)cc23)c2ccc(Cl)cc2OC)cc(S(C)(=O)=O)c1 (stereo in doubt; 11A)  10.07
13. COc1cc(NC(C(=O)c2c[nH]c3ccc(OC(F)(F)F)cc23)c2ccc(Cl)cc2OC)cc(S(C)(=O)=O)c1 (single isomer, unassigned; enantiomer 1)  10.17

Test system: not listed separately
Experiment: Selectivity index, ratio of CC50 for African green monkey Vero cells infected with eGPF-labeled DENV2 16681 to EC50 for DENV2 16681 expressing eGPF infected in African green monkey Vero cells
Settings: not given

In order of rising “Ratio CC50/EC50” value:
1. COc1cc(NC(C(=O)c2c[nH]c3c(C)c(F)ccc23)c2ccc(Cl)cc2OC)cc(S(C)(=O)=O)c1 (single isomer, unassigned; enantiomer 2)  285
2. COc1cc(NC(C(=O)c2c[nH]c3cc(OC)c(C)cc23)c2ccc(Cl)cc2OC)cc(S(C)(=O)=O)c1 (single isomer, unassigned; enantiomer 2)  341
3. COc1cc(NC(C(=O)c2c[nH]c3cc(F)ccc23)c2ccc(Cl)cc2OC)cc(S(C)(=O)=O)c1 (single isomer, unassigned; enantiomer 2)  530
4. COc1cc(NC(C(=O)c2c[nH]c3cc(F)c(C)cc23)c2ccc(Cl)cc2OC)cc(S(C)(=O)=O)c1 (single isomer, unassigned; enantiomer 1)  538
5. COc1cc(NC(C(=O)c2c[nH]c3ccc(OC(F)(F)F)cc23)c2ccc(Cl)cc2OC)cc(S(C)(=O)=O)c1 (single isomer, unassigned; enantiomer 2)  1480
6. COc1cc(NC(C(=O)c2c[nH]c3cc(F)ccc23)c2ccc(Cl)cc2OC)cc(S(C)(=O)=O)c1 (racemic)  11500
7. COc1cc(NC(C(=O)c2c[nH]c3cc(OC)c(C)cc23)c2ccc(Cl)cc2OC)cc(S(C)(=O)=O)c1 (single isomer, unassigned)  16900
8. COc1cc(NC(C(=O)c2c[nH]c3cc(F)c(C)cc23)c2ccc(Cl)cc2OC)cc(S(C)(=O)=O)c1 (single isomer, unassigned; enantiomer 2)  18500
9. COc1cc(NC(C(=O)c2c[nH]c3cc(F)ccc23)c2ccc(Cl)cc2OC)cc(S(C)(=O)=O)c1 (single isomer, unassigned; enantiomer 1)  19700
10. COc1cc(NC(C(=O)c2c[nH]c3c(C)c(F)ccc23)c2ccc(Cl)cc2OC)cc(S(C)(=O)=O)c1 (single isomer, unassigned; enantiomer 1)  22000
11. COc1cc(NC(C(=O)c2c[nH]c3c(C)cc(OC(F)(F)F)cc23)c2ccc(Cl)cc2OC)cc(S(C)(=O)=O)c1 (single isomer, unassigned; enantiomer 2)  22200
12. COc1cc(NC(C(=O)c2c[nH]c3c(C)cc(OC(F)(F)F)cc23)c2ccc(Cl)cc2OC)cc(S(C)(=O)=O)c1 (stereo in doubt; 11A)  30100

For `COc1cc(NC(C(=O)c2c[nH]c3ccc(OC(F)(F)F)cc23)c2ccc(Cl)cc2OC)cc(S(C)(=O)=O)c1` (single isomer, unassigned; enantiomer 1), the “Ratio CC50/EC50” value was greater than 37500.
